According to patent publication US12161648B2, “Covalent targeting of E3 ligases” (The Regents of the University of California, priority 2018, dated 2024):
Entries after “also recorded” stand apart in the source; their conditions may differ. One block for each compound: values may come before it.

Legend:
RNF4 = biological target: T1, RNF4 (Homo sapiens, UniProt P78317); test: Gel-based ABPP, competition against IA-rhodamine labeling of pure RNF4; format: binding; conditions: for IC50: read-out: 50% inhibitory concentration (IC50), IA-rhodamine labeling of RNF4, densitometry; for IC50 / hits from covalent ligand screen against IA-rhodamine labeling of RNF4: 30 min pre-incubation; for hits from covalent ligand screen against IA-rhodamine labeling of RNF4: covalent ligands 50 μM, IA-rhodamine 250 nM 1 h; for inhibition of IA-rhodamine labeling of RNF4: confirmation of screening hits
T1 construct: purchased Boston Biochem K-220
T1 sequence (P78317 1-190): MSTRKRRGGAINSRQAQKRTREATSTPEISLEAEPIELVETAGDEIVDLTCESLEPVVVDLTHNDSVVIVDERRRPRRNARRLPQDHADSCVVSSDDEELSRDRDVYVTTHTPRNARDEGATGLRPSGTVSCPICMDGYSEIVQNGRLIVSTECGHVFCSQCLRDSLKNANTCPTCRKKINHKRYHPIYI
Description: Gel-Based ABPP. Gel-based ABPP methods were performed as previously described^5,6,25,26. Pure recombinant human RNF4 was purchased from Boston Biochem (K-220). RNF4 (0.25 μg) was diluted into 50 μL of PBS and 1p L of either DMSO (vehicle) or covalently acting small molecule to achieve the desired concentration. After 30 minutes at room temperature, the samples were treated with 250 nM IA-Rhodamine (Setareh Biotech, 6222, prepared in anhydrous DMSO) for 1 h at room temperature. Samples were then diluted with 20 μL of 4× reducing Laemmli SDS sample loading buffer (Alfa Aesar) and heated at 90° C. for 5 min. The samples were separated on precast 4-20% Criterion TGX gels (Bio-Rad Laboratories, Inc.). Fluorescent imaging was performed on a ChemiDoc MP (Bio-Rad Laboratories, Inc) inhibition of target labeling was assessed by densitometry using ImageJ.

[1] = system: 231MFP breast cancer cells; test: isoTOP-ABPP proteome-wide selectivity in 231MFP cells in situ; format: cell-based, human
Description: IsoTOP-ABPP chemoproteomic studies. IsoTOP-ABPP studies were done as previously reported^4,6,7,12. […] Proteomes were subsequently treated with IA-alkyne (100 μM, Chess GmbH, 3187) for 1 h at RT. […] Tryptic peptides were eluted off.
Mass Spectrometry Analysis.

BRD4 [2] = test: Cell based degrader assay, BRD4 levels by Western blotting in 231MFP cells; set-up: species or system human; conditions: for dose-response of BRD4 degradation: 12 h
Description: (§1) Cell based degrader assays. For assaying degrader activity, cells were seeded (500,000 for 231MFP cells, 300,000 for HeLa cells) into a 6 cm tissue culture dish (Corning) in 2.0-2.5 mL of media and allowed to adhere overnight. The following morning, media was replaced with complete media containing the desired concentration of compound diluted from a 1000× stock in DMSO. At the specified timepoint, cells were washed once with PBS on ice, before 150 uL of lysis buffer was added to the plate (10 mM sodium phosphate, 150 mM NaCl, 0.1% SDS, 0.5% sodium deoxycholate, 1% Triton X100). The cells were incubated in lysis buffer for 5 min before scraping and transfer to microcentrifuge tubes. The lysates were then frozen at −80 C or immediately processed for western blotting. To prepare for western blotting, the lysates were cleared with 20,000 g spin for 10 min and the resulting supernatants quantified via BCA assay. The lysates were normalized by dilution with PBS to match the lowest concentration lysate and appropriate amount of 4× Laemmli's reducing buffer added.
Western blotting. Antibodies to RNF4 (Proteintech, 17810-1-AP, 1:1000), GAPDH (Proteintech, 60004-1-IG, 1:5000), BRD4 (Abcam, Ab128874, 1:1000), and beta-actin (Proteintech Group Inc., 6609-1-IG, 1:7000) were obtained from the specified commercial sources and dilutions were prepared in 5% BSA/TBST at the specified dilutions.

BRD4 [3] = biological target: T2, BRD4 (Homo sapiens, UniProt O60885); test: BRD4 degradation in RNF4 wild-type and knockout HeLa cells; format: cell-based; conditions: 10 μM 5 h
T2 construct: endogenous in cells; host or cells: HeLa cells, RNF4 wild-type and RNF4 knockout
Description: Cell Culture. The 231MFP cells were obtained from Prof. Benjamin Cravatt and were generated from explanted tumor xenografts of MDA-MB-231 cells as previously described^27. RNF4 knockout HeLa cells were purchased from EdiGene USA (CL0033025003A). RNF4 wild-type HeLa cells were provided by EdiGene USA or the UC Berkeley Cell Culture Facility. 231MFP cells were cultured in L-15 media (Corning) containing 10% (v/v) fetal bovine serum (FBS) and maintained at 37° C. with 0% CO2. HeLa cells were cultured in DMEM media (Corning) containing 10% (v/v) fetal bovine serum (FBS) and maintained at 37° C. with 5% CO2.
as §1, with “The cells were incubated in lysis buffer for 5 min before scraping and transfer to microcentrifuge tubes. The lysates were then frozen at −80 C or immediately processed for western blotting.” left out, “The lysates were normalized by dilution with PBS to match the lowest concentration lysate and appropriate amount of 4× Laemmli's reducing buffer added.” left out

human RNF114 = test: Gel-based ABPP, competition against JNS27 labeling of pure RNF114; format: binding; conditions: JNS27 50 μM
Description: (§2) Gel-Based ABPP. Gel-based ABPP methods were performed as previously described^34,62,63,67. Recombinant pure human proteins were purchased from Origene. […] CuAAC was performed to append rhodamine-azide (1 μM final concentration) onto alkyne probe-labeled proteins. Samples were then diluted with 20 μL of 4× reducing Laemmli SDS sample loading buffer (Alfa Aesar) and heated at 90° C. for 5 min. The samples were separated on precast 4-20% TGX gels (Bio-Rad Laboratories, Inc.). Prior to scanning by ChemiDoc MP (Bio-Rad Laboratories, Inc), gels were fixed in a solution of 10% acetic acid, 30% ethanol for 2 hrs. Inhibition of target labeling was assessed by densitometry using ImageJ.
as §2, with “described^14.” for “described^34,62,63,67.”

[4] = system: 231MFP breast cancer cells; test: TMT-based quantitative proteomic profiling of 231MFP cells; format: cell-based, human; conditions: 100 nM, 12 h
Description: Data shown in (FIG. 22F) are for 6397 proteins quantified with 2 or more unique peptides in n=3 biologically independent samples/group.
Data shown in FIG. 23I are for 5797 proteins quantified with 2 or more unique peptides in triplicate treatments.

BRD4 [5] = test: BRD4 degradation in RNF114 wild-type and knockout HAP1 cells; format: cell-based, human
[6] = system: 231MFP breast cancer cell proteomes; test: Gel-based ABPP of general cysteine-reactivity in 231MFP lysates; format: binding, human; conditions: IA-rhodamine 250 nM
Description: FIG. 5. Additional hits against RNF4 and general assessment of proteome-wide selectivity of RNF4 hits by gel-based ABPP. Gel-based ABPP analysis of DKM 2-76 and TRH 1-74 against IA-rhodamine labeling of RNF4. Covalent ligands were pre-incubated with pure RNF4 protein for 30 min prior to IA-rhodamine labeling (250 nM) for 1 h. Proteins were subjected to SDS/PAGE and visualized by in-gel fluorescence. Gel-based ABPP screen of RNF4 hits YP 1-44 and TRH 1-23 against IA-rhodamine labeling in 231MFP breast cancer cell proteomes. YP 1-44 and TRH 1-23 were pre-incubated with proteome for 30 min prior to IA-rhodamine labeling (250 nM) for 1 h. Proteins were subjected to SDS/PAGE and visualized by in-gel fluorescence.

RNF114 = biological target: T3, RNF114 (Homo sapiens, UniProt Q9Y508); test: Nimbolide-alkyne labeling of RNF114 in 231MFP cells in situ; format: cell-based
T3 construct: Myc; FLAG; purchased Origene
Description: Biotin-azide was appended to probe-labeled proteins by CuAAC, and these proteins were subsequently avidin-enriched. Resulting pulled down proteins were analyzed by SDS/PAGE and Western blotting for RNF114. Gels shown in FIGS. 21C-21F are representative gels from n=3 biologically independent samples/group.

231MFP cells = test: Quantitative proteomic profiling of proteins enriched by the nimbolide-alkyne probe in 231MFP cells; format: cell-based, human; conditions: in situ labeling of 231MFP cells

T3 sequence (Q9Y508 whole entry): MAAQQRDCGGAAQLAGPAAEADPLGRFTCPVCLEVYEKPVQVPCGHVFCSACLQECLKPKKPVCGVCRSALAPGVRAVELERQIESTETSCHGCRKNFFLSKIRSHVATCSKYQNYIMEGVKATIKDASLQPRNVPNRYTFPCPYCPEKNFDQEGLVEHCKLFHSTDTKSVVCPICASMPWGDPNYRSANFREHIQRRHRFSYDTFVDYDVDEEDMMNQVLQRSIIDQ

Compound: COc1ccc(Oc2ccc(N(Cc3ccccc3)C(=O)CCl)cc2)cc1 [CCW16, N-benzyl-2-chloro-N-(4-(4-methoxyphenoxy)phenyl)acetamide]
reduced IA-rhodamine labeling of RNF4 observed down to (RNF4): 1 µM
IC50 (RNF4): 1800 nM
selectivity for RNF4 in cells [1]: not yet completely selective

Compound: Cc1sc2c(c1C)C(c1ccc(Cl)cc1)=N[C@@H](CC(=O)NCCCCOc1ccc(Oc3ccc(N(Cc4ccccc4)C(=O)CCl)cc3)cc1)c1nnc(C)n1-2 [CCW 28-3, (S)—N-benzyl-2-chloro-N-(4-(4-(4-(2-(4-(4-chlorophenyl)-2,3,9-trimethyl-6H-thieno[3,2-f][1,2,4]triazolo[4,3-a][1,4]diazepin-6-yl)acetamido)butoxy)phenoxy)phenyl)acetamide]
IC50 (RNF4): 540 nM
BRD4 degradation compared with MZ1 (BRD4 [2]): does not degrade BRD4 as well as
BRD4 degradation (BRD4 [2]; 231MFP cells, 3 h): leads to BRD4 degradation; also recorded: degrades BRD4 in a dose-responsive manner
BRD4 degradation after pre-treatment with bortezomib (BTZ), JQ1 or TAK-243 (BRD4 [2]; 231MFP, inhibitors 10 μM 30 min, degrader 1 μM 3 h): prevented
BRD4 degradation in RNF4 knockout cells (BRD4 [3]; RNF4 knockout HeLa): not evident
BRD4 degradation in HeLa control cells (BRD4 [3]; RNF4 wild-type): observed
selectivity for RNF4 in cells [1]: not yet completely selective
off-targets part of the ubiquitin-proteasome system ([1]; 10 μM in situ): none of these off-targets of CCW 28-3 are part of the ubiquitin-proteasome system
targets with isotopically light to heavy ratios greater than 4 out of 1114 total quantified probe-modified peptides ([1]; 10 μM in situ 1 h, IA-alkyne 100 μM): 7

Compound: C#CCC1CCC=CC1=O (stereo not shown) [JNS27, reference compound]
probe labeling of RNF114, wild-type versus C8A mutant (human RNF114): selective labeling of C8 on RNF114

Compound: Cc1ncsc1-c1ccc(CNC(=O)[C@@H]2C[C@@H](O)CN2C(=O)[C@@H](NC(=O)COCCOCCOCCNC(=O)C[C@@H]2N=C(c3ccc(Cl)cc3)c3c(sc(C)c3C)-n3c(C)nnc32)C(C)(C)C)cc1 [MZ1, reference compound]
dose-response of BRD4 degradation (BRD4 [2]; 231MFP cells): less degradation at 20 μM compared to 10, 1, and 0.1 μM; also recorded: better BRD4 degradation at 1 and 0.1 μM, and equivalent degradation to XH2 at 10 nM

Compound: COC(=O)C[C@H]1[C@]2(C)C3=C(C)[C@H](c4ccoc4-c4ccc(C(=O)NCCOCCOCCOCCNC(=O)C[C@@H]5N=C(c6ccc(Cl)cc6)c6c(sc(C)c6C)-n6c(C)nnc65)cc4)C[C@H]3O[C@@H]2[C@@H]2OC(=O)[C@]3(C)C=CC(=O)[C@@]1(C)[C@@H]23 [XH1]
BRD4 degradation (BRD4 [2]; 231MFP cells, 12 h treatment): did not show appreciable BRD4 degradation

Compound: COC(=O)C[C@H]1[C@]2(C)C3=C(C)[C@H](c4ccoc4-c4ccc(C(=O)NCCCNC(=O)C[C@@H]5N=C(c6ccc(Cl)cc6)c6c(sc(C)c6C)-n6c(C)nnc65)cc4)C[C@H]3O[C@@H]2[C@@H]2OC(=O)[C@]3(C)C=CC(=O)[C@@]1(C)[C@@H]23 [XH2]
time to BRD4 degradation (BRD4 [2]; 231MFP cells, 100 nM): ≤ 12 h
dose-response of BRD4 degradation (BRD4 [2]; 231MFP cells): less degradation at 1 μM compared to 0.1 and 0.01 μM
BRD4 degradation (BRD4 [2]; 231MFP cells, 12 h treatment): led to BRD4 degradation
BRD4 degradation with proteasome inhibitor bortezomib (BTZ) (BRD4 [2]; 231MFP, BTZ 1 μM, degrader 100 nM 12 h): attenuated
BRD4 degradation with TAK-243 or pre-competing JQ1 (BRD4 [2]; 231MFP, TAK-243 10 μM or JQ1 1 μM, degrader 100 nM 12 h): prevented; also recorded: attenuated
BRD4 degradation with translation inhibitor emetine (BRD4 [2]; 231MFP, emetine 75 μM, degrader 100 nM 12 h): had no effect
BRD2 and BRD3 levels [4]: sparing the other identified BET family members BRD2 and BRD3
selectivity of protein degradation, BRD4 [4]: selectively degrades BRD4
BRD4 degradation after re-expression of wild-type RNF114 in HAP1 RNF114 knockout cells (BRD4 [5]): restoration of BRD4 degradation
BRD4 degradation in RNF114 knockout (KO) HAP1 cells (BRD4 [5]; 100 nM, 12 h): not observed

Compound: C#CCNC(=O)c1ccc(-c2occc2[C@@H]2C[C@H]3O[C@@H]4[C@@H]5OC(=O)[C@]6(C)C=CC(=O)[C@](C)([C@@H](CC(=O)OC)[C@]4(C)C3=C2C)[C@@H]56)cc1 [nimbolide-alkyne probe]
in situ probe labeling of Flag-tagged RNF114 observed down to (RNF114; 231MFP cells expressing Flag-RNF114, 2 h): 100 nM
pulldown of endogenous RNF114 (RNF114; 231MFP cells, 50 μM probe, 1.5 h): significant pulldown
additional proteins enriched by >10-fold compared to no-probe controls (231MFP cells): 114
enrichment of RNF114 compared to no-probe controls (231MFP cells): > 10 fold

The next lines start with results.

hits from covalent ligand screen against IA-rhodamine labeling of RNF4 (RNF4): potential hits
Compound: CC(CCc1ccccc1)NC(=O)CCl (stereo not shown) [DKM 2-76]

hits from covalent ligand screen against IA-rhodamine labeling of RNF4 (RNF4): potential hits
Compound: C=CC(=O)NC1Cc2ccccc2C1 [TRH 1-74]

hits from covalent ligand screen against IA-rhodamine labeling of RNF4 (RNF4): potential hits
silver staining of RNF4 (RNF4; gel-based ABPP gels silver stained): may be causing protein precipitation
Compound: O=C(CCl)Nc1cccc2cnccc12 [TRH 1-163, 2-Chloro-N-(isoquinolin-5-yl)acetamide]
inhibition of IA-rhodamine labeling of RNF4 (RNF4): reproducible and dose-responsive inhibition

hits from covalent ligand screen against IA-rhodamine labeling of RNF4 (RNF4): potential hits
Compound: C=CC(=O)n1ccc2ccccc21 [YP 1-44, 1-(1H-indol-1-yl)prop-2-en-1-one]
inhibition of IA-rhodamine labeling of RNF4 (RNF4): reproducible and dose-responsive inhibition
selectivity, general cysteine-reactivity [6]: much less selective compared to TRH 1-23
